Each block holds one compound with its values, some of them ahead of it.
Key:
[1] = Osmotic flow analysis: water flux and reverse solute flux in U-shaped semi-dynamic forward osmosis apparatus; conditions: feed distilled water
Method: The osmotic flow is evaluated with a homemade, U-shaped semi-dynamic forward osmosis apparatus. To test performance of the draw solute, a semi-permeable commercialized FO membrane (cellulose trifluoroacetate) (Hydration Technology Innovation (HTI), USA) is placed in the middle of the apparatus. Each side is filled with distilled water as a feed solution and a draw solution with predetermined or given concentrations, respectively. The selective layer is faced toward the feed solutions and osmotic water flux from feed to draw solutions is calculated from the volumetric change of each solution during one hour after 30 min. The reversed solute flux from draw to feed solution through the membrane is measured by conductivity, inductively coupled plasma optical emission spectroscopy (ICP-OES), and total organic carbon (TOC).

[2] = Evaluation of osmotic pressure of draw solutions (Osmomat 010, freezing point lowering method); format: physicochemical
Method: Osmotic pressure of each draw solution is measured by using osmotic pressure measurement equipment (Osmomat 010) in accordance with the freezing point lowering method.

[3] = draw solution osmotic pressure 15.0
[4] = draw solution osmotic pressure 29.0
[5] = draw solution osmotic pressure 43.0
[6] = draw solution osmotic pressure 8.3
[7] = draw solution osmotic pressure 23.5
[8] = draw solution osmotic pressure 57.6

Structure (SMILES): [Cl-].[Cl-].[Mg+2] [Comp. Example 1, MgCl2]
Reverse solute flux [1, 3]: 3.3 GMH
Water flux [1, 3]: 5.6 LMH
Reverse solute flux [1, 4]: 4.8 GMH
Water flux [1, 4]: 8.2 LMH
Reverse solute flux [1, 5]: 5.6 GMH
Water flux [1, 5]: 9.7 LMH
Osmotic pressure ([2]; draw solution concentration 19.0 mg/ml): 11.9 atm
Osmotic pressure ([2]; draw solution concentration 38.1 mg/ml): 25.2 atm
Osmotic pressure ([2]; draw solution concentration 76.2 mg/ml): 60.6 atm

Reverse solute flux [1, 3]: 0.9 GMH
Water flux [1, 3]: 4.2 LMH
Reverse solute flux [1, 4]: 1.2 GMH
Water flux [1, 4]: 5.5 LMH
Osmotic pressure ([2]; draw solution concentration 60.2 mg/ml): 11.7 atm
Osmotic pressure ([2]; draw solution concentration 120.4 mg/ml): 25.8 atm
Osmotic pressure ([2]; draw solution concentration 240.7 mg/ml): 62.4 atm
Structure (SMILES): O=S(=O)([O-])[O-].[Mg+2] [Comp. Example 2, MgSO4]

Structure (SMILES): NCCN.O=C(O)CC(O)(CC(=O)O)C(=O)[O-].O=C([O-])CC(O)(CC(=O)[O-])C(=O)[O-].[Na+].[Na+].[Na+].[Na+] [Example 1]
Reverse solute flux [1, 6]: 0 GMH
Water flux [1, 6]: 4.06 LMH
Reverse solute flux [1, 7]: 0.02 GMH
Water flux [1, 7]: 8.25 LMH
Reverse solute flux [1, 8]: 0.41 GMH
Water flux [1, 8]: 11.58 LMH
Osmotic pressure ([2]; draw solution concentration 29.6 mg/ml): 5.8 atm
Osmotic pressure ([2]; draw solution concentration 118.4 mg/ml): 21.8 atm
Osmotic pressure ([2]; draw solution concentration 177.6 mg/ml): 33.8 atm
Osmotic pressure ([2]; draw solution concentration 236.8 mg/ml): 50.4 atm
Osmotic pressure ([2]; draw solution concentration 266.4 mg/ml): 61.1 atm

Structure (SMILES): NCCNCCNCCNCCN.O=C(O)CC(O)(CC(=O)O)C(=O)[O-].O=C(O)CC(O)(CC(=O)O)C(=O)[O-].O=C([O-])CC(O)(CC(=O)O)C(=O)[O-].O=C([O-])CC(O)(CC(=O)[O-])C(=O)[O-].O=C([O-])CC(O)(CC(=O)[O-])C(=O)[O-].[Na+].[Na+].[Na+].[Na+].[Na+].[Na+].[Na+].[Na+].[Na+].[Na+] [Example 2]
Osmotic pressure ([2]; draw solution concentration 34.2 mg/ml): 6.3 atm
Osmotic pressure ([2]; draw solution concentration 68.5 mg/ml): 11.8 atm
Osmotic pressure ([2]; draw solution concentration 102.7 mg/ml): 17.5 atm
Osmotic pressure ([2]; draw solution concentration 205.43 mg/ml): 37.5 atm
Osmotic pressure ([2]; draw solution concentration 301.2 mg/ml): 67.1 atm

Structure (SMILES): NCCCCCCNCCCCCCN.O=C(O)CC(O)(CC(=O)O)C(=O)[O-].O=C([O-])CC(O)(CC(=O)O)C(=O)[O-].O=C([O-])CC(O)(CC(=O)[O-])C(=O)[O-].[Na+].[Na+].[Na+].[Na+].[Na+].[Na+] [Example 4]
Osmotic pressure ([2]; draw solution concentration 46.2 mg/ml): 8.6 atm
Osmotic pressure ([2]; draw solution concentration 92.3 mg/ml): 17.2 atm
Osmotic pressure ([2]; draw solution concentration 184.6 mg/ml): 38.2 atm
Osmotic pressure ([2]; draw solution concentration 249.2 mg/ml): 59.3 atm

Osmotic pressure ([2]; draw solution concentration 46.3 mg/ml): 10.2 atm
Osmotic pressure ([2]; draw solution concentration 92.6 mg/ml): 18.2 atm
Osmotic pressure ([2]; draw solution concentration 185.2 mg/ml): 20.4 atm
Osmotic pressure ([2]; draw solution concentration 277.8 mg/ml): 26.8 atm
Osmotic pressure ([2]; draw solution concentration 370.4 mg/ml): 37.6 atm
Osmotic pressure ([2]; draw solution concentration 463.0 mg/ml): 62.8 atm
Structure (SMILES): NCCNCCN.O=S(=O)(O)O.O=S(=O)([O-])O.O=S(=O)([O-])[O-].[Na+].[Na+].[Na+] [Example 7]
